Experimental data reported in US20220387404A1, “TREATMENT OF CANCER USING A COMBINATION COMPRISING MULTI-TYROSINE KINASE INHIBITOR AND IMMUNE CHECKPOINT INHIBITOR” (BEIGENE, LTD., priority 2019, published 2022).

Experiments:
[1] = tested on: A431 (epidermal carcinoma) cells; assay: Combination efficacy in A431 allogeneic mouse model (A431 cells + human PBMC, s.c.); format: in vivo, Nod-Scid mice; conditions: Mab-1 10 mg/kg QW i.p., Compound 1 1.5 mg/kg QD P.O.
Method: Female Nod-Scid mice were pretreated with cyclophosphamide (in saline, 100 mg/kg intraperitoneal, QD×2) and disulfiram (in 0.8% Tween-80 in saline 125 mg/kg oral gavage, 2 hr after the dose of cyclophosphamide). Two days later, mice with higher body weight were subcutaneously implanted with 2.5×10^6 A431 (epidermal carcinoma) cells and 5×10^6 freshly isolated peripheral blood mononuclear cells (PBMC) on the right flank. After inoculation, mice were randomly assigned into 4 groups with 10 animals in each group according to body weight. Then mice were treated with vehicle (PEG400/0.1N HCL in saline, 40/60), Mab-1, Compound 1, and combination of Mab-1 and Compound 1, respectively. Mab-1 was given at 10 mg/kg once per week (QW) by intraperitoneal (i.p.) injection, and Compound 1 was administered at 1.5 mg/kg once per day (QD) by oral gavage (P.O.). Tumor volume was determined twice weekly in two dimensions using a caliper, and expressed in mm^3 using the formula: V=0.5(a×b^2), where a and b are the long and short diameters of the tumor, respectively.
Data are presented as mean tumor volume±standard error of the mean (SEM). Tumor growth inhibition (TGI) is calculated using the following formula:
treated t=treated tumor volume at time t;treated t0=treated tumor volume at time 0; placebo t=placebo tumor volume at time t; placebo t0=placebo tumor volume at time 0.

[2] = tested on: CT26WT (colon carcinoma) cells; assay: Combination efficacy in CT26WT syngeneic mouse model; format: in vivo, BALB/c mice; conditions: muCh15mt 3 mg/kg QW i.p., Compound 1 5 mg/kg QD oral gavage
Method: Female BALB/c mice were s.c implanted with 2×10^5 CT26WT (colon carcinoma) cells per 150 ul PBS in the right flank. After inoculation, mice were randomized into 4 groups with 12 animals in each group. The mice were treated with vehicle (PEG400/0.1N HCL in saline, 40/60), muCh15mt, Compound 1, and the combination of muCh15mt and Compound 1, respectively. MuCh15mt was given at 3 mg/kg once per week (QW) by intraperitoneal (i.p.) injection, and Compound 1 was administered at 5 mg/kg once per day (QD) by oral gavage. Tumor volume was determined twice weekly in two dimensions using a caliper, and was expressed in mm^3 using the formula: V=0.5(a×b^2) where a and b are the long and short diameters of the tumor, respectively. Data are presented as mean tumor volume 1 standard error of the mean (SEM). Tumor growth inhibition (TGI) is calculated using the following formula:
(§1) treated t=treated tumor volume at time t treated t0=treated tumor volume at time 0 placebo t=placebo tumor volume at time t placebo t0=placebo tumor volume at time 0

[3] = tested on: MC38 (colon adenocarcinoma) cells; assay: Combination efficacy in MC38 syngeneic mouse model; format: in vivo, BALB/C mice; conditions: muCh15mt 3 mg/kg QW i.p., Compound 1 5 mg/kg QD P.O.
Method: Female BALB/C mice were s.c implanted with 1×10^6 MC38 (colon adenocarcinoma) cells per 150 μl PBS in the right flank. After inoculation, mice were randomized into 4 groups with 15 animals in each group. The mice were treated with vehicle (PEG400/0.1N HCL in saline, 40/60), muCh15mt, Compound 1, and the combination treatment of much15mt and Compound 1, respectively. MuCh15mt was given at 3 mg/kg once per week (QW) by intraperitoneal (i.p.) injection, and Compound 1 was administered at 5 mg/kg once per day (QD) for 25 days by oral gavage (P.O.). Tumor volumes were determined twice weekly in two dimensions using a caliper, and were expressed in mm^3 using the formula: V=0.5(a×b^2) where a and b are the long and short diameters of the tumor, respectively.
Data are presented as mean tumor volume+standard error of the mean (SEM). Tumor growth inhihition (TGI) is calculated using the following formula:
as §1

[4] = tested on: A20 (B cell lymphoma) cells; assay: Combination efficacy in A20 syngeneic mouse model; format: in vivo, BALB/C mice; conditions: muCh15mt 3 mg/kg QW i.p., Compound 1 5 mg/kg QD P.O.
Method: Female BALB/C mice were s.c implanted with 1×10^5 A20 (B cell lymphoma) cells per 150 μl PBS in the right flank. After inoculation, tumor volumes were determined twice weekly in two dimensions using a caliper, and were expressed in mm^3 using the formula: V=0.5(a×b^2) where a and b are the long and short diameters of the tumor, respectively. When tumor volume reached approximately 100 mm^3, mice were randomized into 4 groups with 12 animals in each group according to tumor volume. The mice were then treated with vehicle (PEG400/0.1N HCL in saline, 40/60), muCh15mt, Compound 1, and the combination, respectively. MuCh15mt was given at 3 mg/kg once per week (QW) by intraperitoneal (i.p.) injection, and Compound 1 was administered at 5 mg/kg once per day (QD) by oral gavage (P.O.).
Data are presented as mean tumor volume ±standard error of the mean (SEM). Tumor growth inhibition (TGI) is calculated using the following formula:
as §1

## COCCNCc1ccc(-c2cc3nccc(Oc4ccc(NC(=O)C5(C(=O)Nc6ccc(F)cc6)CC5)cc4F)c3s2)nc1 [Compound 1]
[1]
  Mean Tumor Volume on Day 26 (mm^3): 851.5 mm^3
  TGI (%) on Day 26: 37%
[2]
  Mean Tumor Volume on Day 28 (mm^3): 723.2 mm^3
  TGI (%) on Day 28: 71%
  Tumor Free Animal (%) on Day 28: 6.7%
[3]
  Mean Tumor Volume on Day 25 (mm^3): 1089.5 mm^3
  TGI (%) on Day 25: 56%
  Tumor Free Animal % on Day 25: 0%
[4]; Day 15
  TGI (%) on Day 15: 71%
[4]; Day 18
  Mean Tumor Volume on Day 18 (mm^3): 735.7 mm^3
  Tumor Free Animal % on Day 18: 8.3%
